Assay results: patent US12630520B2, “Left-handed bicyclic morpholine and salt thereof, preparation method therefor, pharmaceutical composition, and use” (Institute of Materia Medica, Chinese Academy of Medical …, priority 2019, dated 2026)

Legend:
[1] = test system: HepG2 cells; assay: 4-Acetamidophenol (APAP)-induced in vitro hepatocyte injury, MTT and LDH; type: cell-based, human; settings: HepG2, 10 μM, 8 mM APAP
Experimental: (§1) Human liver cancer HepG2 cell well retained the characteristics of normal human hepatocytes, and they were grown in a DMEM medium containing 10% of fetal calf cerium (containing 100 U/mL of penicillin and 100 μg/mL of streptomycin) at the culturing conditions: 37° C., 5% of CO2 and a saturated humidity. A solution containing 0.25% of trypsin and 0.02% of EDTA was used for digestions and passages.
(§2) A MTT method was adopted. The HepG2 cells were inoculated in a 96-well cell culture plate, and after 24 hour cultures, the (+)IMM-H014, the (−)IMM-H014 and the (±)IMM-H014 were added in a non-toxic concentration whilst the 4-acetamidophenol (APAP, a final concentration of 8 mM) was added thereto. A Bicyclol positive control group, a solvent control group and a model group were set for the experiment. The culture was continued for 24 h. 100 μL of the culture solution was taken and centrifuged, and a full-automatic biochemical analyzer in a LDH detection kit was utilized to detect the LDH level therein. The remaining culture solution was discarded, and to each well, 100 μL of a MTT (0.5 mg/mL) solution was added to continue the culture for 4 hours. The MTT solution was discarded, and to each well, 150 μL of DMSO was added. The mixture was oscillated by a mixing oscillator, and the absorbance value was measured at a wavelength of 570 nm in a microplate reader. Cell survival rate (%)=(OD mean of administration group/OD mean of solvent control group)×100%.
(§3) The data were presented as a number mean±standard deviation (x±SD).

[2] = test system: HepG2 cells; assay: Carbon tetrachloride (CCl4)-induced in vitro hepatocyte injury, MTT; type: cell-based, human; settings: HepG2, 10 μM
Experimental: as §1, with “cells” for “cell”
as §2, with “carbon tetrachloride (CCl4,” for “4-acetamidophenol (APAP,”, “0.6%)” for “8 mM)”, “They acted on the cells continuously” for “The culture was continued”, “h.” for “h. 100 μL of the culture solution was taken and centrifuged, and a full-automatic biochemical analyzer in a LDH detection kit was utilized to detect the LDH level therein.”, “The” for “The remaining”, “to” for “to continue the”
as §3

## COC(=O)c1cc(OC)c2c(c1-c1c(CO)cc(OC)c3c1OCO3)OCO2 [Bicyclol]
[1]; 24 h, MTT
  Survival rates (%): 50.67%
[1]; 24 h, MTT, 570 nm
  OD Mean ± SD: 0.454 ± 0.092
[1]; versus model group
  Cell survival rate increase (%): 32.2%
[2]; 0.6% CCl4, 24 h, MTT
  Survival rates (%): 89.47%
[2]; 0.6% CCl4, 24 h, MTT, 570 nm
  OD Mean ± SD: 0.819 ± 0.099
[2]; 0.6% CCl4, versus model group
  Cell survival rate increase (%): 15.36%
